Data on one molecule can be found in paper PMC12266748, “A Xanthine Derivative With Novel Heat Shock Protein 90‐Alpha Inhibitory and Senolytic Properties” (Aging Cell, 2025).

Broadly, the EC50 is the concentration needed to bring the measured effect to its halfway point.

Read-outs that look alike come from different tables or passages of the source. Where only a bound is given, the exact number is not on record here.

The subject of one series is WI38 cells. As to the kind of experiment: Dose-response curves on proliferating and replicative senescent WI38 (Trypan blue cell count). In kind it is cell-based. The following applies: for EC50: Homo sapiens, WI-38. The text has this:
(§1) IMR90 and WI38 lung fibroblasts were purchased from ECACC‐Merck. Human bone marrow (BM)‐derived mesenchymal stromal cells (MSCs) were purchased from Lonza. Human umbilical vein endothelial cells (HUVECs) are primary cells obtained from a pool of donors purchased from Clonetics (Lonza). Murine ear fibroblasts (MearFs) were obtained from C57BL/6J mice maintained in the INRCA “Specific Pathogen Free” (SPF) animal facility. MCF7 breast cancer cells were purchased from ATCC. For dose–response curves, IMR90 and WI38 were induced to senescence through replicative passages; MSCs, HUVECs, and MearFs senescence was induced with Doxorubicin; MCF7 senescence was induced with 4‐Hydroxytamoxifen (Lee et al. [2014]). The EC50 was calculated using GraphPad Prism 10 software. All treatment specifications are reported in the extended section.
Cell culture and treatment. IMR90 cells (Homo sapiens, fetal lung, fibroblast) and WI38 cells (Homo sapiens, fetal lung, fibroblast) were purchased from ECACC-Merck (Merck, Darmstadt, Germany) and cultured in MEM medium (Euroclone, Milano, Italy) supplemented with 1% L-Glutamine (Euroclone, Milano, Italy), 1% Penicillin-Streptomycin (Euroclone, Milano, Italy), and 10% Fetal Bovine Serum (FBS, Euroclone, Milano, Italy), at 37°C, 5% CO2. IMR90 cells with a population doubling (PD) from PD15 to PD23 were used; cells were considered incrementally senescent from passage PD19 to passage PD23. WI38 cells were used from PD26 to PD53. Cells were considered incrementally senescent from passage PD49 to passage PD53. For the compounds in vitro screening, IMR90 cells with passages from PD15 to PD23 were tested at increasing concentrations of 0.5 μM, 1 μM, 10 μM, and 25 μM over 24 and 48 h to evaluate the compounds' efficacy and cytotoxicity compared to the Vehicle (DMSO ≤ 0.1%). Cells were counted manually, in triplicate, using Trypan blue reagent (Euroclone) and disposable Bürker chambers. […] K5 dose-response proliferation curves were performed with compound K5 (Molport, SIA, Riga, Latvia) in concentrations 0.1, 0.5, 1, 5, 10, 50, 100, and 200 μM for 48 h. Cells were counted using a Trypan blue reagent and EVAplus cell counter. The EC50s were calculated by analyzing the data using GraphPad Prism 10 software.
(§2) MCF7 cell line (ATCC; HTB-22, Homo sapiens, breast cancer) was purchased from ATCC; cells were grown in MEM medium (Corning, New York, USA, #15-010-CVR) supplemented with 10% FBS (Gibco, Invitrogen, Carlsbad, CA, USA, #10270106), 1% glutamine (Corning #25005-CI), 1% penicillin and streptomycin (Corning #30002-CI). Cells were incubated at 37 °C with 5% CO2. Senescent status induction: MCF7 were plated 24 h before the treatment with 4-Hydroxytamoxifen (TAM) 10 μM to induce the senescence described by (Lee et al. 2014). Control cultures were treated with equal volumes of 75% ethanol as the vehicle. The treatment with TAM lasts 96 h, after which the cells have been washed and treated with the senolytic drugs K5 10 µM for another 96 h. The treatment with the senolytic compounds has been renewed at 48 h. Cell mortality and vitality curves after treatment with K5 (10 μM, orange) or Vehicle (DMSO, grey) were monitored using the Incucyte live-cell Analysis system (Sartorius, Goettingen, Germany). The estimated Senolytic index (SI) was calculated as the ratio between the EC50 in proliferating cells and the EC50 in senescent cells, extrapolated using GraphPad Prism 10 software.

A further series deals with MCF7 cells. As to the kind of experiment: Dose-response curves on proliferating and Tamoxifen-induced senescent MCF7 (Incucyte). In kind it is cell-based, Homo sapiens.
Excerpt: as §1, §2

Series [1] relates to Human mesenchymal stem cells (MSCs). Briefly: MTT viability of Doxorubicin-induced senescent and non-senescent MSCs. In kind it is cell-based. The following applies: for EC50: Homo sapiens, Mesenchymal stem cells, MTT.
Excerpt: as §1
Cell viability was determined using an MTT assay. Absorbance was measured using a NB‐12‐0035 Microplate Reader (NeoBiotech Co.). Data are expressed as a percentage of viability compared with untreated cells.
Human bone marrow (BM)-derived mesenchymal stromal cells (MSCs) were purchased from Lonza (Allendale, NJ, USA) and cultured in α-MEM (Euroclone, Milano, Italy), with 10% fetal bovine serum (FBS, Lonza, Stein, Switzerland), 100 U/mL penicillin, […] streptomycin and 2 mM L-glutamine. Cells were seeded at a density of 5000/cm^2 and maintained at 37°C in a humidified atmosphere with 5% CO2. The culture medium was changed at 48 h intervals, and cells were trypsinized when almost 80% were confluent using 0.25% trypsin-EDTA (Euroclone, Milano, Italy). […]
Cell viability assay. Cell viability has been determined with MTT (3-(4,5-dimethylthiazol-2-yl)-2, 5-diphenyltetrazolium bromide) assay. […] Insoluble formazan salts produced were solubilized with DMSO incubation, and then absorbance was measured at 540 nm using a microplate reader (NB-12-0035 Microplate Reader, NeoBiotech Co., Seoul, Republic of Korea). Data are expressed as a percentage of viability compared with untreated cells (the control group has been considered 100% of viability).

For `Cc1ccccc1-n1c(=O)n(Cc2ccccc2)c(=O)c2[nH]cnc21` [Compound K5, 1-benzyl-3-(2-methylphenyl)-7H-purine-2,6-dione], the EC50 with WI38 cells (WI38, Replicative/passages, read-out: EC50 senescent cells) was 0.65 µM; in the series with WI38 cells (WI38, read-out: EC50 proliferating cells), over 500 µM; in the series with MCF7 cells (Homo sapiens, MCF7, 96 h, MCF7, K5 96 h, read-out: EC50 proliferating cells) it was 167 µM; in the series on MCF7 cells (Homo sapiens, MCF7, 96 h, MCF7, TAM 10 μM 96 h, then K5 96 h, read-out: EC50 senescent cells) it was 24.4 µM; with MCF7 cells (MCF7, K5 96 h, read-out: EC50 proliferating cells), 167 µM; in the series with MCF7 cells (MCF7, TAM 10 μM 96 h, then K5 96 h, read-out: EC50 senescent cells), 24 µM. Further, the EC50 in series [1] (DNA damage (Doxorubicin), read-out: EC50 senescent cells) was over 200 µM; in series [1] (read-out: EC50 proliferating cells) it was over 500 µM. In addition, the “Senolytic evidence (no, partly/yes)” value in the series with WI38 cells (WI38, Replicative/passages) was “Yes”; in the series on MCF7 cells (MCF7, 4-hydroxy-tamoxifen), “Yes”; in series [1] (DNA damage (Doxorubicin)), “Partly”. The “Senolytic index (estimated)” value in the series with WI38 cells (WI38, SI = EC50 in proliferating cells/EC50 senescent cells) is given as over 770; with MCF7 cells (MCF7, SI = EC50 in proliferating cells/EC50 senescent cells) it was 7. For the same molecule, the “toxicity in proliferating cells” value in the series on WI38 cells (proliferating WI38 (PD29), 100 nM to 200 μM, 48 h) is reported as “no evident toxicity”.
